From patent publication US6544767B1, “Cathespin O2 protease” (Axys Pharmaceuticals, Inc., priority 1994, dated 2003)
Where two headings read alike, the source gives them in different places. One block for each compound: values may come before it. Non-standard residues stand in square brackets, D forms with d. Residues, ends and D or L forms follow the SMILES beside them. *: point of attachment. Sta = CC(C)C[C@H](N)[C@@H](O)CC(=O)O; AMC = Cc1cc(=O)oc2cc(N*)ccc12; Isovaleryl = CC(C)CC(=O)*; Cbz = O=C(OCc1ccccc1)*; CHN2 = [N-]=[N+]=C*

Columns and labels:
[1] = biological target: T1, recombinant human cathepsin O2 (Homo sapiens, UniProt P43235); experiment: Hydrolysis of synthetic MCA substrates (kinetic parameters); assay type: biochemical
T1 construct: the mature protein spans from position 115 to 329 (215 amino acids); made in house; host or cells: Sf9 insect cells (baculovirus, pVL1392)
T1 sequence (P43235 115-329): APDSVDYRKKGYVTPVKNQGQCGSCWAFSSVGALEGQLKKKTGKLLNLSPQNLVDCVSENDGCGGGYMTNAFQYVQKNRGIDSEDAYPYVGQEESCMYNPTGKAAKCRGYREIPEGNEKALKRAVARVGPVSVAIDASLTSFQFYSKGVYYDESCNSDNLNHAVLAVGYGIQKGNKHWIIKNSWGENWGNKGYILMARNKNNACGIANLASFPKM
Method: (§1) Human cathepsin O2 was assayed with a fluorogenic substrate Z-FR-MCA (MCA, methyl coumarylamide) in 100 mM sodium acetate buffer, containing 2.5 mM dithioerythreitol and 2.5 mM EDTA. Initial rates of hydrolysis of the MCA-substrate are monitored in 1-cm cuvettes at 25° C. at an excitation wavelength at 380 nm and an emission wavelength at 450 nm. The concentration of Z-FR-MCA is 5 μM under standard conditions.
The kinetic constants Vmax and Km were obtained by non-linear regression analysis using the program Enzfitter (Leatherbarrow, Enzfitter, Elsevier Biosoft, Cambridge, United Kingdom (1987).
The substrate specificity towards synthetic substrates was determined using the above described substrate assay.
For the calculation of the kinetic parameters kcat and Km the initial rates were obtained typically at 9-11 different substrate concentrations, and the results are fitted to equation (1). The enzyme concentration is determined by active site titration with E-64 (Kinder et al., Biochem. J. 201:367-372 (1982)). [formula]

[2] = biological target: T1, recombinant human cathepsin O2; experiment: Inhibitor profile, fluorimetric enzyme assay with Z-FR-MCA; assay type: biochemical; conditions: for inhibition at 0.05 µM: [inhibitor] 0.05 μM
Method: as §1
The inhibition of cathepsin O2 was assayed at a constant substrate (5 μM Z-FR-MCA) and enzyme concentration (1 nM) in the presence of different inhibitor concentrations in the substrate assay buffer. Cathepsin O2 was preincubated with the inhibitors for 10 min and the reaction was started with substrate. The residual activity was monitored and percent inhibition was calculated from the uninhibited rate.
The efficacy of protease class specific inhibitors to inhibit cathepsin O2 was determined by adding the inhibitor to the purified enzyme in a fluorimetric enzyme assay (described above).

[3] = system: denatured soluble calf skin collagen; experiment: Gelatinase activity, SDS-PAGE; assay type: biochemical
Method: FIGS. 9A and 9B depict SDS PAGE of type I collagen (soluble calf skin collagen) after digestion with recombinant human cathepsin O2 and L and bovine trypsin. FIG. 9A: Collagenase activity: Digestion of soluble calf skin collagen at 28° C. and at pH 4.0, 5.0, 5.5, 6.0, 6.5, 7.0 by human cathepsins O2, S and L (each 50 nM) for 12 hours. The reaction was stopped by addition of 10 μM E-64. Untreated soluble collagen was used as standard (S). FIG. 9B: Gelatinase activity: Digestion of denatured soluble calf skin collagen (10 min heated at 70° C.) at 28° C. and at pH 4.0, 5.0, 5.5, 6.0, 6.5, 7.0 by human cathepsin O2 (0.1 nM), cathepsin L (0.2 nM) and human cathepsin S (1 nM). Molecular mass standards are indicated in the left lane.
Soluble calf skin Type I collagen was diluted to 0.4 mg/ml into 100 mM-sodium acetate buffer, pH 4.5, 5.0, 5.5, in 100 mM-potassium phosphate buffer, pH 6.0, 6.5 and 100 mM-Tris/HCl, pH 7.0 containing 2 mM-dithiotreitol/2 mM-EDTA. Human cathepsins O2, S and L and bovine trypsin (Sigma) were incubated at concentrations of 100 nM enzyme concentration for 10 hours at 28° C. To measure the gelatinase activity of cathepsins O2 and S, Type I collagen was heated for 10 min at 70° C. prior to incubation with the proteases. In the presence of 1 nM proteases the reaction mix was incubated for 30 min at 28° C. […]

[4] = from literature; cited from earlier work
pH stability at 37° C. = assay type: physicochemical
Method: The residual activity was measured in time intervals using the above described fluorimetric substrate assay. The pH stability of cathepsins O2, S and L was studied at three different pH values. Recombinant human cathepsins O2, S and L were incubated at 37° C. in 100 mM sodium acetate buffer, pH 5.5, in 100 mM potassium phosphate buffer, pH 6.5 and in 100 mM Tris/HCl, pH 7.5 containing 5 mM dithiothreitol and 2.5 mM EDTA. Incubating for 0.5, 1, 2 and 4 hours, the activity remaining was determined using 5 μM Z-FR-MCA for cathepsin O2 (100 mM potassium phosphate buffer, pH 6.5) and cathepsin L (100 mM sodium acetate buffer, pH 5.5) and 5 μM Z-VVR-MCA for cathepsin S (100 mM potassium phosphate buffer, pH 6.5).

pH activity profile = assay type: biochemical; conditions: calculated from (pK1 + pK2)/2
Method: Initial rates of substrate hydrolysis were monitored as described above. The pH activity profile of human cathepsin O2 was obtained at 1 μM substrate (Z-FR-MCA) concentration ([S]<<Km where the initial rate vo is directly proportional to the kcat/Km value). The following buffers were used for the pH activity profile: 100 mM sodium citrate (pH 2.8-5.6) and 100 mM sodium phosphate (pH 5.8-8.0). All buffers contained 1 mM EDTA and 0.4 M NaCl to minimize the variation in ionic strength. A three protonation model (Khouri et al., Biochem. 30:8929-8936 (1991)) was used for least square regression analysis of the pH activity data. The data were fitted to the following equation.
(kcat/Km)obs=(kcat/Km)/([H^+]/K1+1+K2/[H^+])

[^3H] elastin = Elastin degradation assay; assay type: biochemical
Method: Elastin (2 mg) was incubated in I ml buffer containing 2.5 mM dithiothreitol, 2.5 mM EDTA and 0.05% Triton X-100 for the cathepsin O2, S and L assays. Aliquots were withdrawn after 10, 20, 30, 50, 90, 120 and 180 min, centrifuged for 1 min at 14,000×g and counted in a 24-well plate containing scintillation fluid with Liquid Scintillation counter (1450 Microbeta Plus, Wallac/Pharmacia). Concentrations of human cathepsins O2, S and L and bovine elastase in the elastin degradation assay were 65 nM, 28 nM, 80 nM and 80 nM, respectively. To determine the pH effect on protease activity the digests were carried out at pH 4.5 and 5.5 (100 mM sodium acetate, 2.5 mM each dithiothreitol and EDTA, 0.05% Triton X-100), and at pH 7.0 (100 mM Tris/HCl, 2.5 mM each of dithiothreitol and EDTA, 0.05% Triton X-100). Pancreatic bovine elastase (Boehringer, Mannheim, Ind.) was assayed under the same conditions except that neither dithiothreitol nor EDTA was added to the incubation mixture.

Compound: Cbz-Val-Val-Arg-{AMC}
- Km [1]: 18.5 ± 1.5 µM
- kcat [1]: 0.01 ± 0.004 s⁻¹

Compound: CCCC[C@@H](C=O)NC(=O)[C@H](CC(C)C)NC(=O)OCc1ccccc1 [calpeptin]
- inhibition at 0.1 µM ([2]; [inhibitor] 0.1 μM): 100%

Compound: O=S(=O)(F)Cc1ccccc1 [PMSF]
- % inhibition ([2]; [inhibitor] 1 mM): 0%

Compound: O=c1oc(Cl)c(Cl)c2ccccc12 [DCI]
- % inhibition ([2]; [inhibitor] 0.1 mM): 0%

Compound: [N-]=[N+]=CC(=O)[C@H](Cc1ccccc1)NC(=O)[C@H](Cc1ccccc1)NC(=O)OCc1ccccc1 [Z-FF-CHN2] (Cbz-Phe-Phe-CHN2)
- % inhibition ([2]; [inhibitor] 0.1 μM): 90%

Compound: O=C(O)CI [iodo acetate]
- % inhibition ([2]; [inhibitor] 50 μM): 60%

Compound: cathepsin L: recombinant human cathepsin L provided by Dr. Mort [reference compound]
- pH range of gelatinase activity [3]: 4.5-5.5
- pK1 of pH activity profile [4]: 4.22 ± 0.28
- pK1′ of pH activity profile [4]: 3.33 ± 0.14
- pK2 of pH activity profile [4]: 6.95 ± 0.09
- Residual activity (%) (pH stability at 37° C.; pH 5.5, 37° C., 0.5 hr): 87%
- Residual activity (%) (pH stability at 37° C.; pH 5.5, 37° C., 1 hr): 78%
- Residual activity (%) (pH stability at 37° C.; pH 5.5, 37° C., 2 hr): 71%
- Residual activity (%) (pH stability at 37° C.; pH 5.5, 37° C., 4 hr): 51%
- Residual activity (%) (pH stability at 37° C.; pH 6.5, 37° C., 0.5 hr): 12%
- Residual activity (%) (pH stability at 37° C.; pH 6.5, 37° C., 2 hr): 0%
- Residual activity (%) (pH stability at 37° C.; pH 6.5, 37° C., 4 hr): 0%
- Residual activity (%) (pH stability at 37° C.; pH 7.5, 37° C., 0.5 hr): 0%
- Residual activity (%) (pH stability at 37° C.; pH 7.5, 37° C., 1 hr): 0%
- Residual activity (%) (pH stability at 37° C.; pH 7.5, 37° C., 2 hr): 0%
- Residual activity (%) (pH stability at 37° C.; pH 7.5, 37° C., 4 hr): 0%
- pH optimum (pH activity profile): 5.6
- elastinolytic activity ([^3H] elastin; pH 4.5): 18 mg/min/μmol enzyme
- elastinolytic activity ([^3H] elastin; pH 5.5): 32 mg/min/μmol enzyme
- elastinolytic activity ([^3H] elastin; pH 7.0): 0 mg/min/μmol enzyme

Compound: Cc1cc(=O)oc2cc(NC(=O)[C@H](CCCN=C(N)N)NC(=O)[C@H](CCCN=C(N)N)NC(=O)OCc3ccccc3)ccc12 [Z-RR-MCA] (Cbz-Arg-Arg-{AMC})
- Km [1]: 23 ± 4 µM
- kcat [1]: 0.0005 ± 0.0002 s⁻¹
- substrate quality [1]: very poor substrate

Compound: Cl.NCCc1ccc(S(=O)(=O)F)cc1 [Befablock]
- % inhibition ([2]; [inhibitor] 0.2 mM): 0%

Compound: C[C@H](NC(=O)[C@H](Cc1ccccc1)NC(=O)OCc1ccccc1)C(=O)C=[N+]=[N-] [Z-FA-CHN2]
- % inhibition ([2]; [inhibitor] 0.1 μM): 100%

Compound: CC(=O)N[C@@H](CC(C)C)C(=O)N[C@@H](CC(C)C)C(=O)N[C@H](C=O)CCCNC(=N)N [leupeptin]
- inhibition at 0.05 µM [2]: 85%

Compound: CC(C)C[C@H](NC(=O)[C@@H](NC(=O)N[C@@H](Cc1ccccc1)C(=O)O)[C@@H]1CCN=C(N)N1)C(=O)N[C@H](C=O)Cc1ccccc1 [chymostatin]
- inhibition at 0.05 µM [2]: 64%

The next lines start with the values.

- Km [1]: 3.8 ± 0.8 µM
- kcat [1]: 0.98 ± 0.39 s⁻¹
Compound: Cc1cc(=O)oc2cc(NC(=O)[C@H](CCCN=C(N)N)NC(=O)[C@H](CC(C)C)NC(=O)OCc3ccccc3)ccc12 [Z-LR-MCA]

- Km [1]: 7.5 ± 3.4 µM
- kcat [1]: 0.90 ± 0.20 s⁻¹
Compound: Cc1cc(=O)oc2cc(NC(=O)C(CCCN=C(N)N)NC(=O)C(Cc3ccccc3)NC(=O)OCc3ccccc3)ccc12 (stereo not drawn) [Z-FR-MCA] (Cbz-Phe-Arg-{AMC}; configuration not given here)

- Km [1]: 13.1 ± 5.6 µM
- kcat [1]: 1.06 ± 0.16 s⁻¹
Compound: Cbz-Val-Arg-{AMC}

- inhibition at 0.1 µM ([2]; [inhibitor] 0.1 μM): 0%
Compound: CC(C)CC(=O)N[C@H](C(=O)N[C@H](C(=O)N[C@@H](CC(C)C)[C@@H](O)CC(=O)N[C@@H](C)C(=O)N[C@@H](CC(C)C)[C@@H](O)CC(=O)O)C(C)C)C(C)C [pepstatin] (Isovaleryl-VV[Sta]A[Sta]-OH)

- Km [1]: 0.4 ± 0.1 µM
- kcat [1]: 0.02 ± 0.008 s⁻¹
- Km ([1]; text value): 0.4 µM
Compound: Z-LLR-MCA

- % inhibition ([2]; [inhibitor] 0.1 μM): 100%
- inhibition of enzyme activity ([2]; concentrations above 0.1 μM): completely inhibit
Compound: CC(C)C[C@H](NC(=O)[C@H]1O[C@@H]1C(=O)O)C(=O)NCCCCN=C(N)N [E-64]

- % inhibition ([2]; [inhibitor] 4 mM): 0%
- effect on the activity of cathepsin O2 ([2]; concentration of 4 mM): No effect
- inhibition of cathepsin O2 ([2]; higher concentrations (>5 mM)): partial non-specific inhibition
Compound: O=C(O)CN(CCN(CC(=O)O)CC(=O)O)CC(=O)O [EDTA]
